US20230159510A1, “NOVEL PRMT5 INHIBITORS” (AMGEN INC., priority 2020, published 2023)
pIC50: −log10 of the molar value. Read-outs that look alike come from different tables or passages of the source.

Assays:
PRMT5/MEP50 = PRMT5/MEP50 (Homo sapiens, UniProt O14744); experiment: MTase-Glo methyl transferase assay, Method B (FL-Histone H2A, 1 µM MTA, 1 h pre-incubation); assay type: biochemical; set-up: purchased Reaction Biology Corp RD-11-292; details: read-out: PRMT5 MTase Glo Ki (nM, Meth. B)
Procedure, shortened: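 PRMT5/MEP50 (4 nM) was pre-incubated 1 h with compound, 5 µM SAM and 1 µM MTA, then started with 2.5 µM FL-Histone H2A in Tris pH 8.0 buffer. After 20 h at room temperature, SAH was detected by MTase-Glo luminescence, and IC50/KI were fitted from dose-response curves.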

HCT116 WT cells = experiment: HCT116 proliferation assay, WT cells (CellTiter-Glo, 6 days); assay type: cell-based; details: read-out: Prolif_HCT116-WT IC50
Procedure, shortened: (§1)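 Readout is CellTiter-Glo luminescence after 6 days of drug exposure at 37 °C. Compounds tested as 8–9 point, 3-fold dilution series starting at 1 or 10 µM, versus DMSO only, on cells in RPMI 1640 with 10% FBS.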

HCT116 MTAP null cells = experiment: HCT116 proliferation assay, MTAP null cells (CellTiter-Glo, 6 days); assay type: cell-based; details: read-out: Protif_ HCT116-MTAP null IC50
Procedure, shortened: as §1

PRMT5/MEP50, sequence (O14744 2-637 limits assumed): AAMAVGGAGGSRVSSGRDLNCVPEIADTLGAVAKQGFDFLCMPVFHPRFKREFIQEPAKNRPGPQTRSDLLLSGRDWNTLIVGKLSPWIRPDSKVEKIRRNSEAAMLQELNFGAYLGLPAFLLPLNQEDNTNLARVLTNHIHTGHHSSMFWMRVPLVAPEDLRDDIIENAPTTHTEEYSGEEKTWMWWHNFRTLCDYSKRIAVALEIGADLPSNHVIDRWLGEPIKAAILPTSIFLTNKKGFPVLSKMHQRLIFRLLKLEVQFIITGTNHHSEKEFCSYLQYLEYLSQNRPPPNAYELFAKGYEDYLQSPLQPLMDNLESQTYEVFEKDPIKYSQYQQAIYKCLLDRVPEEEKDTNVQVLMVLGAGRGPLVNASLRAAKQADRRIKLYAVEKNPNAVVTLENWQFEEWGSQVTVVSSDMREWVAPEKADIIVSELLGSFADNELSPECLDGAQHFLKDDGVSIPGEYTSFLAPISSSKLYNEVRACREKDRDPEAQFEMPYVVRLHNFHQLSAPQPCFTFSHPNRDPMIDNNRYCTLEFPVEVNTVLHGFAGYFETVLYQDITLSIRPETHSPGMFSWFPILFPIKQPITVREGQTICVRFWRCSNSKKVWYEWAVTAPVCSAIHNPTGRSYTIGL
PRMT5/MEP50, sequence (Q9BQA1 2-342 partner limits assumed): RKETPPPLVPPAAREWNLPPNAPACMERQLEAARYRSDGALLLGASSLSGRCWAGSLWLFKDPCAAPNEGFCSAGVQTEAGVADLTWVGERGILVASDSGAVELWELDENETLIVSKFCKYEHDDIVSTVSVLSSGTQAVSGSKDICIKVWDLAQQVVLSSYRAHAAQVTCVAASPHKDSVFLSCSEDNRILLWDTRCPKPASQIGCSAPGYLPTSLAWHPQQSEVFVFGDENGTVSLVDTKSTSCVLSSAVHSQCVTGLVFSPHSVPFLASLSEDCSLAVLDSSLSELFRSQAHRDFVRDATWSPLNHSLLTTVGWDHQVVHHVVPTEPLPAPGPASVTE

Row | Ki (PRMT5/MEP50) [nM] | pIC50 (HCT116 WT cells; Homo sapiens, HCT-116, 144 h) | pIC50 (HCT116 MTAP null cells; HCT116-MTAP null, 144 h) | pIC50 (HCT116 WT cells) | pIC50 (HCT116 MTAP null cells) | Compound
1 | 1.59 | – | – | 5.85 | 7.26 | Cc1cc2cc(C(=O)N(Cc3ccc4[nH]ncc4c3)Cc3ccc(C(F)(F)F)cn3)ccc2nc1N [Example 618, N-((1H-indazol-5-yl)methyl)-2-amino-3-methyl-N-((5-(trifluoromethyl)pyridin-2-yl)methyl)quinoline-6-carboxamide]
2 | 1.87 | 5.89 | 6.89 | – | – | Cc1cc2cc(C(=O)N(Cc3ccc4cn[nH]c4c3)Cc3ccc(C(F)(F)F)cn3)ccc2nc1N [Example 619, N-((1H-indazol-6-yl)methyl)-2-amino-3-methyl-N-((5-(trifluoromethyl)pyridin-2-yl)methyl)quinoline-6-carboxamide]
3 | 1.83 | < 6.00 | 7.00 | – | – | Cc1cc2cc(C(=O)N(Cc3ccc4[nH]c(=O)oc4c3)Cc3ccc(C(F)(F)F)cn3)ccc2nc1N [Example 620, 2-amino-3-methyl-N-((2-oxo-2,3-dihydrobenzo [d]oxazol-6-yl)methyl)-N-((5-(trifluoromethyl)pyridin-2-yl)methyl)quinoline-6-carboxamide]
4 | 3.97 | < 6.00 | 6.88 | – | – | Cc1cc2cc(C(=O)N(Cc3ccn4ccnc4c3)Cc3ccc(C(F)(F)F)cn3)ccc2nc1N [Example 621, 2-amino-N-(imidazo[1,2-a]pyridin-7-ylmethyl)-3-methyl-N-((5-(trifluoromethyl)pyridin-2-yl)methyl)quinoline-6-carboxamide]
5 | 1.98 | < 6.00 | 6.89 | – | – | Cc1cc2cc(C(=O)N(Cc3ccc4ccoc4c3)Cc3ccc(C(F)(F)F)cn3)ccc2nc1N [Example 622, 2-amino-N-(benzofuran-6-ylmethyl)-3-methyl-N-((5-(trifluoromethyl)pyridin-2-yl)methyl)quinoline-6-carboxamide]
6 | 3.14 | 6.05 | 7.25 | – | – | Cc1cc2cc(C(=O)N(Cc3ccc4[nH]ccc4c3)Cc3ccc(C(F)(F)F)cn3)ccc2nc1N [Example 623, N-((1H-indol-5-yl)methyl)-2-amino-3-methyl-N-((5-(trifluoromethyl)pyridin-2-yl)methyl)quinoline-6-carboxamide]
7 | 5.19 | < 6.00 | 6.73 | – | – | Cc1ccc2c(c1)C(N(Cc1ccc(C(F)(F)F)cn1)C(=O)c1ccc3nc(N)c(C)cc3c1)CC2 (stereo not drawn) [Example 624, 2-amino-3-methyl-N-(6-methyl-2,3-dihydro-1H-inden-1-yl)-N-((5-(trifluoromethyl)pyridin-2-yl)methyl)quinoline-6-carboxamide]
8 | 3 to 4 | 6.36 | 7.28 | – | – | Cc1cc2cc(C(=O)N(Cc3ccc(C(F)(F)F)cn3)C3CCc4c(O)cccc43)ccc2nc1N (stereo not drawn) [Example 628, 2-amino-N-(4-hydroxy-2,3-dihydro-1H-inden-1-yl)-3-methyl-N-((5-(trifluoromethyl)pyridin-2-yl)methyl)quinoline-6-carboxamide]
9 | 4.69 | < 6.00 | 6.57 | – | – | Cc1cc2cc(C(=O)N(Cc3ccc(C(F)(F)F)cn3)C3CCc4nc(N)ncc4C3)ccc2nc1N (stereo not drawn) [Example 668, 2-amino-N-(2-amino-5,6,7,8-tetrahydroquinazolin-6-yl)-3-methyl-N-[ [5-(trifluoromethyl)-2-pyridyl]methyl] quinoline-6-carboxamide]
10 | 5.56 | < 6.00 | 6.39 | – | – | Cc1cc2cc(C(=O)N(Cc3ccc(C(F)(F)F)cn3)C3CCc4[nH]ncc4C3)ccc2nc1N (stereo not drawn) [Example 672, 2-amino-3-methyl-N-(4,5,6,7-tetrahydro-1H-mdazol-5-yl)-N-[[5-(trifluoromethyl)-2-pyridyl]methyl] quinoline-6-carboxamide]
11 | 3.88 | < 6.00 | 6.59 | – | – | Cc1cc2cc(C(=O)N(Cc3ccc(C(F)(F)F)cn3)C[C@H]3CC[C@H](O)CC3)ccc2nc1N [Example 676, 2-amino-N-[(4-hydroxycyclohexyl)methyl]-3-methyl-N-[[5-(trifluoromethyl)-2-pyridyl]methyl] quinoline-6-carboxamide]
12 | 1.76 | 5.11 | 6.80 | – | – | Cc1cc2cc(C(=O)N(Cc3ccc(CC(N)=O)cc3)Cc3ccc(C(F)(F)F)cn3)ccc2nc1N [Example 680, 2-amino-N-[ [4-(2-amino-2-oxoethyl)phenyl]methyl]-3-methyl-N-[[5-(trifluoromethyl)-2-pyridyl]methyl] quinoline-6-carboxamide]
13 | 4.29 | < 6.00 | 6.53 | – | – | Cc1cc2cc(C(=O)N(Cc3ccc(C(F)(F)F)cn3)CC3CCOCC3)ccc2nc1N [Example 683, 2-amino-3-methyl-N-(tetrahydropyran-4-ylmethyl)-N-[[5-(trifluoromethyl)-2-pyridyl]methyl] quinoline-6-carboxamide]
14 | 2.29 | < 6.00 | 6.94 | – | – | Cc1cc2cc(C(=O)N(Cc3ccc(C(F)(F)F)cn3)Cc3ccnc4[nH]ccc34)ncc2nc1N [Example 684, 2-amino-3-methyl-N-(1H-pyrrolo[2,3-b]pyridin-4-ylmethyl)-N-[[5-(trifluoromethyl)-2-pyridyl]methyl]-1,7-naphthyridine-6-carboxamide]

The remaining lines, values behind:

Row | Compound | Ki (PRMT5/MEP50) [nM] | pIC50 (HCT116 WT cells; Homo sapiens, HCT-116, 144 h) | pIC50 (HCT116 MTAP null cells; HCT116-MTAP null, 144 h) | pIC50 (HCT116 WT cells) | pIC50 (HCT116 MTAP null cells)
15 | Cc1cc2cc(C(=O)N(Cc3ccc(C(F)(F)F)cn3)C3CCc4sc(Cl)cc43)ccc2nc1N (stereo not drawn) [Example 607, 2-amino-N-(2-chloro-5,6-dihydro-4H-cyclopenta[b]thiophen-4-yl)-3-methyl-N-((5-(trifluoromethyl)pyridin-2-yl)methyl)quinoline-6-carboxamide] | 7.26 | < 5.49 | 6.43 | – | –
16 | Cc1cc2cc(C(=O)N(Cc3ccc(C(F)(F)F)cn3)C3COc4ccccc43)ccc2nc1N (stereo not drawn) [Example 608, 2-amino-N-(2,3-dihydrobenzofuran-3-yl)-3-methyl-N-((5-(trifluoromethyl)pyridin-2-yl)methyl)quinoline-6-carboxamide] | 5.26 | < 6.00 | 6.40 | – | –
17 | Cc1cc2cc(C(=O)N(Cc3ccc(C(F)(F)F)cn3)[C@@H]3c4ccccc4C[C@H]3O)ccc2nc1N [Example 609, 2-amino-N-((1R,2R)-2-hydroxy-2,3-dihydro-1H-inden-1-yl)-3-methyl-N-((5-(trifluoromethyl)pyridin-2-yl)methyl)quinoline-6-carboxamide] | 26.8 | < 6.00 | 6.27 | – | –
18 | Cc1cc2cc(C(=O)N(Cc3ccc(C(F)(F)F)cn3)C3COc4c3ccc(C)c4C)ccc2nc1N (stereo not drawn) [Example 610, 2-amino-N-(6,7-dimethyl-2,3-dihydrobenzofuran-3-yl)-3-methyl-N-((5-(trifluoromethyl)pyridin-2-yl)methyl)quinoline-6-carboxamide] | 9.6 | < 6.00 | 6.27 | – | –
19 | COC(CN(Cc1ccc(C(F)(F)F)cn1)C(=O)c1ccc2nc(N)c(C)cc2c1)C(F)(F)F (stereo not drawn) [Example 611, 2-amino-3-methyl-N-(3,3,3-trifluoro-2-methoxypropyl)-N-((5-(trifluoromethyl)pyridin-2-yl)methyl)quinoline-6-carboxamide] | 3 to 7 | < 6.00 | 7.15 | – | –
20 | Cc1cc2cc(C(=O)N(Cc3ccc(C(F)(F)F)cn3)C3CCCC(O)C3)ccc2nc1N (stereo not drawn) [Example 612, 2-amino-N-(3-hydroxycyclohexyl)-3-methyl-N-((5-(trifluoromethyl)pyridin-2-yl)methyl)quinoline-6-carboxamide] | 7.56 | < 6.00 | 6.47 | – | –
21 | COC(CN(Cc1ccc(C(F)(F)F)cn1)C(=O)c1ccc2nc(N)c(C)cc2c1)C(C)C (stereo not drawn) [Example 613, 2-amino-N-(2-methoxy-3-methylbutyl)-3-methyl-N-((5-(trifluoromethyl)pyridin-2-yl)methyl)quinoline-6-carboxamide] | 4.35 | 5.41 | 6.57 | – | –
22 | Cc1cc2cc(C(=O)N(Cc3ccc(C(F)(F)F)cn3)CC3CCn4ccnc4C3)ccc2nc1N (stereo not drawn) [Example 614, 2-amino-3-methyl-N-((5,6,7,8-tetrahydroimidazo [1,2-a]pyridin-7-yl)methyl)-N-((5-(trifluoromethyl)pyridin-2-yl)methyl)quinoline-6-carboxamide] | 9.42 | < 6.00 | 6.02 | – | –
23 | Cc1cc2cc(C(=O)N(Cc3ccc(C(F)(F)F)cn3)Cc3ccc4cc[nH]c4n3)ccc2nc1N [Example 615, N-((1H-pyrrolo [2,3-b]pyridin-6-yl)methyl)-2-amino-3-methyl-N-((5-(trifluoromethyl)pyridin-2-yl)methyl)quinoline-6-carboxamide] | 1.62 | 5.46 | 6.56 | – | –
24 | Cc1cc2cc(C(=O)N(Cc3ccc4[nH]c(N)nc4c3)Cc3ccc(C(F)(F)F)cn3)ccc2nc1N [Example 616, 2-amino-N-((2-amino-1H-benzo [d]imidazol-5-yl)methyl)-3-methyl-N-((5-(trifluoromethyl)pyridin-2-yl)methyl)quinoline-6-carboxamide] | 3.29 | < 6.00 | 6.49 | – | –
25 | Cc1cc2cc(C(=O)N(Cc3ccc(C(F)(F)F)cn3)CC3CCc4[nH]cnc4C3)ccc2nc1N (stereo not drawn) [Example 617, 2-amino-3-methyl-N-((4,5,6,7-tetrahydro-1H-benzo[d]imidazol-5-yl)methyl)-N-((5-(trifluoromethyl)pyridin-2-yl)methyl)quinoline-6-carboxamide] | 1.72 | < 6.00 | 6.54 | – | –
